In US10968193B2, “Antidiabetic bicyclic compounds” (Merck Sharp & Dohme Corp., priority 2014, dated 2021):

target: T1, human GPR40 (Homo sapiens, UniProt O14842); test: Inositol Phosphate Turnover (IP1) Assay 3; assay type: cell-based; settings: HEK cells stably expressing human GPR40
T1 construct: expressed in transfected cells; host or cells: HEK cells stably expressing the aequorin reporter
In short: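 HEK cells stably expressing human GPR40, plated 16 h before, were treated with compound for 60 min at 37 °C in stimulation buffer. IP1 measured by HTRF (665/620 nm ratio) against an IP1 standard curve; activity normalized to a reference compound, EC50 from 4-parameter fit.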

T1 sequence (O14842 whole entry): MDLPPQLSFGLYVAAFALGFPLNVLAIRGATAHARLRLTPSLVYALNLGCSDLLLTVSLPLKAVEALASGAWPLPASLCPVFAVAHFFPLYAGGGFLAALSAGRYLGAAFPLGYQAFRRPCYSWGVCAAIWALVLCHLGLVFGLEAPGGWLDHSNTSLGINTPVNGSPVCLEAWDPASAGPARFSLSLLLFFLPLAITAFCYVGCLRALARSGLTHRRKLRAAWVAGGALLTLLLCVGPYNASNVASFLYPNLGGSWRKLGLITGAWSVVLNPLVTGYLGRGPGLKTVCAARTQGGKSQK

| EC50 | SMILES |
| --- | --- |
| 0.5 nM | COc1cc(-c2ccc(C3CCc4ccc([C@H](C5CC5)[C@H](C)C(=O)O)c(F)c4O3)cc2CN2[C@H](C)CC[C@H]2C)c(F)cn1 (single isomer, unassigned) [Example 209] |
| 3.1 nM | COc1cc(-c2ccc(C3CCc4ccc([C@H](C5CC5)[C@H](C)C(=O)O)c(F)c4O3)cc2CN2CCC[C@H]2C)c(F)cn1 (single isomer, unassigned) [Example 210] |
| 2.1 nM | COc1cc(-c2ccc(C3CCc4ccc([C@H](C5CC5)[C@H](C)C(=O)O)c(F)c4O3)cc2CN2CCC[C@H]2C)c(F)cn1 (single isomer, unassigned) [Example 211] |
| 3.1 nM | COc1cc(-c2ccc(C3CCc4ccc([C@H](C5CC5)[C@H](C)C(=O)O)c(F)c4O3)cc2CN2CCC[C@@H]2C)c(F)cn1 (single isomer, unassigned) [Example 212] |
| 1.4 nM | COc1cc(-c2ccc(C3CCc4ccc([C@H](C5CC5)[C@H](C)C(=O)O)c(F)c4O3)cc2CN2CCC[C@@H]2C)c(F)cn1 (single isomer, unassigned) [Example 213] |
| 12 nM | CCOc1cc(-c2ccc(C3CCc4ccc([C@H](C5CC5)[C@H](C)C(=O)O)cc4O3)cc2CN(CC)CC)c(Cl)cn1 (single isomer, unassigned) [Example 214] |
| 6 nM | CCOc1cc(-c2ccc(C3CCc4ccc([C@H](C5CC5)[C@H](C)C(=O)O)cc4O3)cc2CN(CC)CC)c(Cl)cn1 (single isomer, unassigned) [Example 215] |
| 57 nM | CCOc1cc(-c2ccc(C3CCc4ccc([C@H](C5CC5)[C@H](C)C(=O)O)cc4O3)cc2CN2CCCC2)c(Cl)cn1 (single isomer, unassigned) [Example 217] |
| 10 nM | CCOc1cc(-c2ccc(C3CCc4ccc([C@H](C5CC5)[C@H](C)C(=O)O)cc4O3)cc2CN2CCCC2)c(Cl)cn1 (single isomer, unassigned) [Example 218] |
| 2 nM | COc1cc(-c2ccc(C3CCc4ccc([C@H](C5CC5)[C@H](C)C(=O)O)cc4O3)c(F)c2CN2CCCC2)c(F)cn1 (single isomer, unassigned) [Example 219] |
| 7.2 nM | COc1cc(-c2ccc(C3CCc4ccc([C@H](C5CC5)[C@H](C)C(=O)O)cc4O3)c(F)c2CN2CCCC2)c(F)cn1 (single isomer, unassigned) [Example 220] |
| 14 nM | CCN(CC)Cc1cc(C2CCc3ccc([C@H](C4CC4)[C@H](C)C(=O)O)cc3O2)ccc1-c1ccnc(OC)c1 (single isomer, unassigned) [Example 221] |
| 1.3 nM | COc1cc(-c2ccc(C3CCc4ccc([C@H](C5CC5)[C@H](C)C(=O)O)cc4O3)cc2CN2CCCCC23CC3)ccn1 (single isomer, unassigned) [Example 222] |
| 0.05 nM | COc1cc(-c2ccc(C3CCc4ccc([C@H](C5CC5)[C@H](C)C(=O)O)cc4O3)c(CN3CCCCC34CC4)c2)ccn1 (single isomer, unassigned) [Example 223] |
| 11 nM | COc1cc(-c2ccc(C3CCc4ccc([C@H](C5CC5)[C@H](C)C(=O)O)cc4O3)c(CN3CCCCC34CC4)c2)ccn1 (single isomer, unassigned) [Example 224] |
| 0.43 nM | CCN(CC)C(C)c1cc(C2CCc3ccc([C@H](C4CC4)[C@H](C)C(=O)O)cc3O2)ccc1-c1cc(OC)ncc1F (single isomer, unassigned) [Example 244] |
| 5.4 nM | CCN(CC)C(C)c1cc(C2CCc3ccc([C@H](C4CC4)[C@H](C)C(=O)O)cc3O2)ccc1-c1cc(OC)ncc1F (single isomer, unassigned) [Example 245] |
| 1.3 nM | CCN(C(C)C)C(C)c1cc(C2CCc3ccc([C@H](C4CC4)[C@H](C)C(=O)O)cc3O2)ccc1-c1ccnc(OC)c1 (single isomer, unassigned) [Example 247] |
| 11.5 nM | CCN(C(C)C)C(C)c1cc(C2CCc3ccc([C@H](C4CC4)[C@H](C)C(=O)O)cc3O2)ccc1-c1ccnc(OC)c1 (single isomer, unassigned) [Example 248] |

| EC50 | SMILES |
| --- | --- |
| 0.6 nM | COc1cc(-c2ccc(C3CCc4ccc([C@H](C5CC5)[C@H](C)C(=O)O)cc4O3)cc2CN2CCC3CC32)c(F)cn1 (single isomer, unassigned) [Example 256a] |
| 0.9 nM | COc1cc(-c2ccc(C3CCc4ccc([C@H](C5CC5)[C@H](C)C(=O)O)cc4O3)cc2CN2CCC3CC32)c(F)cn1 (single isomer, unassigned) [Example 256b] |
| 1.7 nM | CCC1CCCCN1Cc1cc(C2CCc3ccc(C(C4CC4)C(C)C(=O)O)cc3O2)ccc1-c1ccnc(OC)c1 (single isomer, unassigned) [Example 258a] |
| 2.2 nM | CCC1CCCCN1Cc1cc(C2CCc3ccc(C(C4CC4)C(C)C(=O)O)cc3O2)ccc1-c1ccnc(OC)c1 (single isomer, unassigned) [Example 258b] |
| 0.7 nM | CCC1CCCN1Cc1cc(C2CCc3ccc([C@H](C4CC4)[C@H](C)C(=O)O)cc3O2)ccc1-c1cc(OC)ncc1F (single isomer, unassigned) [Example 267a] |
| 0.1 nM | CCC1CCCN1Cc1cc(C2CCc3ccc([C@H](C4CC4)[C@H](C)C(=O)O)cc3O2)ccc1-c1cc(OC)ncc1F (single isomer, unassigned) [Example 267b] |
| 0.08 nM | CCC1CCCCN1Cc1cc(C2CCc3ccc([C@H](C4CC4)[C@H](C)C(=O)O)cc3O2)ccc1-c1cc(OC)ncc1F (single isomer, unassigned) [Example 273a] |
| 0.3 nM | CCC1CCCCN1Cc1cc(C2CCc3ccc([C@H](C4CC4)[C@H](C)C(=O)O)cc3O2)ccc1-c1cc(OC)ncc1F (single isomer, unassigned) [Example 273b] |
| 4.4 nM | CCN(CC)Cc1cc(C2CCc3ccc([C@H](C4CC4)[C@H](C)C(=O)O)cc3O2)ccc1-c1ccnc(OC)c1 (single isomer, unassigned) [Example 283] |
| 9.5 nM | COc1cc(-c2ccc(C3CCc4ccc([C@H](C5CC5)[C@H](C)C(=O)O)cc4O3)nc2CN2CCCC2)c(F)cn1 (stereo partly shown) [Example 90] |
| 467 nM | COc1cc(-c2ccc(C3CCc4ccc([C@H](C5CC5)[C@H](C)C(=O)O)cc4O3)nc2CN(C(C)C)C(C)C)ccn1 (stereo partly shown) [Example 91] |
| 0.07 nM | COc1cc(-c2ccc(C3CCc4ccc([C@H](C5CCC5)[C@H](C)C(=O)O)cc4O3)cc2CN2CCCC2C)c(F)cn1 (stereo partly shown) [Example 102] |
| 0.09 nM | COc1cc(-c2ccc(C3CCc4ccc([C@H](C5CCC5)[C@H](C)C(=O)O)cc4O3)cc2CN2CCCC2C)c(F)cn1 (stereo partly shown) [Example 103] |
| 104 nM | COc1cc(-c2ccc(C3CCc4ccc([C@H](C5CC5)[C@H](C)C(=O)O)cc4O3)c(CN3[C@H](C)CC[C@H]3C)c2)ccn1 (stereo partly shown) [Example 116] |
| 0.4 nM | COc1cc(-c2ccc(C3CCc4ccc([C@H](C5CC5)[C@H](C)C(=O)O)cc4O3)c(CN3CCCC[C@@H]3C)c2)ccn1 (stereo partly shown) [Example 121] |
| 0.7 nM | COc1cc(-c2ccc(C3CCc4ccc([C@H](C5CC5)[C@H](C)C(=O)O)cc4O3)c(CN3[C@H](C)CC[C@@H]3C)c2)ccn1 (stereo partly shown) [Example 122] |
| 0.2 nM | COc1cc(-c2ccc(C3CCc4ccc([C@H](C5CC5)[C@H](C)C(=O)O)cc4O3)c(CN3[C@H](C)CC[C@H]3C)c2)c(F)cn1 (stereo partly shown) [Example 127] |
| 0.09 nM | COc1cc(-c2ccc(C3CCc4ccc([C@H](C5CC5)[C@H](C)C(=O)O)cc4O3)c(CN3CCCC[C@@H]3C)c2)c(F)cn1 (stereo partly shown) [Example 131] |
